Laboratory results published in publication PMC5291303 (Science translational medicine, 2016).

Experiments:
[1] = test system: microtubules in LLC-PK1 cells expressing GFP–α-tubulin; test: Microtubule dynamic instability in live cells; format: cell-based; conditions: IC80: 24 nM DZ-2384, 11 nM vinorelbine; mean ± SD
[2] = test system: E18 rat primary cortical neurons; test: IC50 in primary cortical neurons; format: cell-based
[3] = test system: primary rat cortical neurons; test: Axonal microtubule immunostaining in primary neurons; format: cell-based; conditions: 1 hour; 0.3 to 100 nM; DZ-2384 up to 100 nM, vinorelbine starting at 0.3 nM
HeLa cells = test: 3-day cell viability assay, HeLa; format: cell-based
[4] = test system: RS4;11 model of adult Philadelphia chromosome–negative ALL; test: RS4; format: in vivo, mice; conditions: P = 0.0028 tumor cells; P = 0.0024 survival
[5] = test system: MDA-MB-231-LM2 breast cancer metastases; test: MDA-MB-231-LM2 experimental lung metastasis model; format: in vivo, SCID/beige mice; conditions: for Tumor-free animals: up to 106 days after initial treatment
[6] = test system: microtubule polymer mass in H1299 cells; test: Microtubule sedimentation assay; format: cell-based; conditions: 4 hours, increasing concentrations
[7] = test system: U-2 OS cells stably expressing an EB3-mCherry fusion protein; test: Growing microtubule ends in EB3-mCherry U-2 OS cells; format: cell-based; conditions: equipotent (IC80) concentrations
H1299 cells [8] = test: DNA content and caspase-3 activation in H1299 cells; format: cell-based
[9] = all doses tested, each xenograft model
[10] = test system: U-2 OS osteosarcoma cells; test: Interphase microtubule immunostaining in U-2 OS cells; format: cell-based; conditions: unsynchronized, IC80 (300 nM each), 2 hours
tubulin [11] = test: Surface plasmon resonance binding and competition; conditions: tubulin (3 μM) preincubated with competitor
[12] = test system: Rgs16∷GFP;KIC pancreatic model; test: Rgs16::GFP; format: in vivo, mice
[13] = test system: caudal, digital and tibial nerves; dorsal root ganglia, sciatic nerve; test: Peripheral neuropathy study; format: in vivo, Sprague-Dawley rats; conditions: for Caudal and digital NCV / Tibial nerve onset latency / Caudal and digital NCV after recovery / Histology of dorsal root ganglia and sciatic nerve: at MTD (DZ-2384 30 mg/m^2, docetaxel 120 mg/m^2)
[14] = test system: MIA PaCa-2 model of pancreatic ductal adenocarcinoma; test: MIA PaCa-2 subcutaneous xenograft efficacy; format: in vivo, mice
[15] = Toxicity studies to determine NOAEL; format: in vivo, mice; conditions: plasma AUC at NOAEL vs at MED
purified tubulin [16] = test: Electron microscopy of tubulin oligomer curvature; format: biochemical; conditions: 10 μM; compared with vinblastine
Pharmacokinetics in rats = format: in vivo, Sprague-Dawley rats; conditions: rat; 12 mg/m^2
purified tubulin [17] = test: Reconstituted single molecule assay for microtubule dynamics; format: biochemical; conditions: for Growth and shrinkage rates: 100 nM DZ-2384
[18] = Plasma exposure by LC-MS/MS at MED and NOAEL doses
H1299 cells [19] = test: Growth inhibition of H1299 cells; format: cell-based
[20] = test system: U-2 osteosarcoma (OS) cells; test: 3-day viability assay, U-2 OS; format: cell-based
[21] = test system: human pancreatic cancer PDX; test: Pancreatic cancer patient-derived xenograft; format: in vivo, SCID/beige mice; conditions: for Effect on tumor growth: gemcitabine 100 mg/m^2, DZ-2384 36 mg/m^2, alone or combined
in vivo = conditions: mouse
tubulin [22] = conditions: cited from earlier work
[23] = relative to untreated microtubules

Compound: CC(C)[C@H](O)C(=O)N[C@H]1Cc2ccc3c(c2)[C@]2(C4=C(c5nc(CO)co5)N=C(O4)[C@H](C(C)(C)C)NC1=O)c1cc(F)ccc1N[C@@H]2O3 [DZ-2384]
- %Time per phase Growth [1]: 42.1 ± 13.1 (0.9109) %
- %Time per phase Pause [1]: 32.7 ± 12.1 (0.7422) %
- %Time per phase Shrink [1]: 25.2 ± 1.4 (0.3079) %
- Dynamicity [1]: 10.4 ±1.4 (0.0335) μm/min
- Growth Distance [1]: 2.4 ± 0.3 (0.0631) μm
- Growth Duration [1]: 19.0 ± 6.2 (0.2666) s
- Growth Rate [1]: 8.3 ±1.6 (0.0164) μm/min
- Shrink Distance [1]: 4.7 ± 0.9 (0.3899) μm
- Shrink Duration [1]: 10.6 ± 1.3 (0.6087) s
- Shrink Rate [1]: 27.7 ± 2.2 (0.6081) μm/min
- IC50 [2]: 43 nM
- Axonal morphology, width and tubulin staining [3]: minimal qualitative differences
- IC80 (HeLa cells; 3-day cell viability assay): 4 nM
- Dose reducing circulating tumor cells (day 23) and increasing survival [4]: ≤ 0.7 mg/m^2
- Tumor-free animals ([5]; 4.5 mg/m^2): 1 of 5
- Tumor-free animals ([5]; 18 mg/m^2): 2 of 8
- Survival ([5]; all treated groups, P < 0.0001 vs vehicle): significantly increased the survival
- Effect on lung metastases ([5]; starting at the lowest dose tested): regression of all lung metastases
- Microtubule polymer mass [6]: decrease in microtubule polymer mass
- Number of growing microtubules [7]: decreased the number of growing microtubules
- Start of accumulation in G2-M phase (H1299 cells [8]): 4 to 8 h
- Start of apoptosis (procaspase-3 cleavage) (H1299 cells [8]; after treatment): 16 h
- Body weight loss [9]: less than 10%
- Interphase microtubule network [10]: microtubules were present
- Competition of tubulin binding to biotinylated DZ-2384 surfaces (tubulin [11]): inhibited its binding
- Tolerability of 30 mg/m^2 ([12]; administered on P23 (no mortality)): tolerated
- NCV and onset latency ([13]; day 24, 12 mg/m^2, vs age-matched controls): normal NCV and onset latency
- Caudal and digital NCV ([13]; day 24): slowing of the caudal and distal digital NCV
- Tibial nerve onset latency ([13]; day 24): the tibial nerve was unaffected
- Histology of lumbar dorsal root ganglia and sciatic nerve ([13]; day 44, 12 mg/m^2): no changes
- Caudal and digital NCV after recovery ([13]; day 44): remained slow
- Histology of dorsal root ganglia and sciatic nerve ([13]; day 44): did not find histological evidence of neurotoxicity
- Tumor-free animals ([14]; 9 mg/m^2, ~3 months after treatment): all mice were tumor-free
- Tumor response ([14]; 4 weekly bolus i.v. administrations): complete tumor regression
- Safety margin (range over MIA PaCa-2 and HT-29 models) [15]: 24.4 to 53.5
- Protofilament curvature (κ) (purified tubulin [16]): straighter
- AUC (Pharmacokinetics in rats): 4371 ng·h/mL
- Growth and shrinkage rates (purified tubulin [17]; [23]): decreased by about twofold
- Rescue frequency (purified tubulin [17]; P = 0.0236 at 50 nM): twice the rate seen with vinorelbine
- Catastrophe frequencies (purified tubulin [17]; [23]): slightly increased
- MED Exposure [AUC0-α] ([18]; mouse plasma AUC at the MED of the HT-29 model): 344 ng·h/mL
- MED Exposure [AUC0-α] ([18]; mouse plasma AUC at the MED of the MIA PaCa-2 model): 157 ng·h/mL
- NOAEL Exposure [AUC0-α] ([18]; mouse plasma AUC at the NOAEL dose): 8398 ng·h/mL
- IC50 (H1299 cells [19]; H1299 cells): 12 nM
- IC80 ([20]; U-2 OS, 3-day): 300 nM
- Deaths ([21]; day 29): One animal inexplicably died
- Effect on tumor growth [21]: insignificant effects on tumor growth
- Body weight loss after the first dose ([21]; then quickly recovered): 11%

Compound: CCC1=C[C@@H]2CN(C1)Cc1c([nH]c3ccccc13)[C@@](C(=O)OC)(c1cc3c(cc1OC)N(C)[C@H]1[C@@](O)(C(=O)OC)[C@H](OC(C)=O)[C@]4(CC)C=CCN5CC[C@]31[C@@H]54)C2 [Vinorelbine, vinorelbine, reference compound]
- %Time per phase Growth [1]: 13.1 ± 7.3 (0.0074) %
- %Time per phase Pause [1]: 48.4 ± 8.1 (0.0141) %
- %Time per phase Shrink [1]: 38.6 ± 8.6 (0.1068) %
- Dynamicity [1]: 10.2 ±1.3 (0.0165) μm/min
- Growth Distance [1]: 2.1 ± 0.2 (0.0036) μm
- Growth Duration [1]: 17.5 ± 5.8 (0.4242) s
- Shrink Distance [1]: 6.4 ± 1.4 (0.2345) μm
- Shrink Duration [1]: 17.6 ± 6.6 (0.1570) s
- Shrink Rate [1]: 24.6 ± 3.5 (0.1242) μm/min
- Axonal morphology, width and tubulin staining [3]: thinner and/or fragmented axons
- IC80 (HeLa cells; Homo sapiens, 72 h): 11 nM
- Microtubule polymer mass [6]: like with vinorelbine
- Number of growing microtubules [7]: vastly decreasing the number of growing microtubules
- Body weight loss [9]: less than 10%
- Interphase microtubule network [10]: intact microtubules were difficult to observe
- AUC (in vivo): 3380 ng·h/mL
- Competition of tubulin binding to biotinylated DZ-2384 surfaces (tubulin [11]): blocked its binding
- Affinity compared to vinblastine (tubulin [22]): lower affinity
- Safety margin (range over MIA PaCa-2 and HT-29 models) [15]: 0.7 to 1.0
- Growth and shrinkage rates (purified tubulin [17]; [23]): Comparable growth and shrinkage rate decreases
- AUC ([18]; mouse, in vivo, 30 mg/m^2): 2310 ng·h/mL
- IC50 (H1299 cells [19]; Homo sapiens, NCI-H1299): 15 nM
- IC80 ([20]; Homo sapiens, U2OS, 72 h): 300 nM

Compound: CC(=O)O[C@@]12CO[C@@H]1C[C@H](O)[C@@]1(C)C(=O)[C@H](O)C3=C(C)[C@@H](OC(=O)[C@H](O)[C@@H](NC(=O)OC(C)(C)C)c4ccccc4)C[C@@](O)([C@@H](OC(=O)c4ccccc4)[C@H]21)C3(C)C [docetaxel, reference compound]
- Microtubule polymer mass [6]: increased microtubule polymer mass
- Caudal and digital NCV ([13]; day 24): decrease in NCV in caudal and digital nerves
- Tibial nerve onset latency ([13]; day 24): increase in onset latency in tibial nerves
- Caudal and digital NCV after recovery ([13]; day 44): no improvement in either caudal or digital NCV
- Histology of dorsal root ganglia and sciatic nerve ([13]; day 44): incomplete recovery of the damaged dorsal root ganglia

Compound: Nc1ccn([C@@H]2O[C@H](CO)[C@@H](O)C2(F)F)c(=O)n1 [gemcitabine, reference compound]
- Clinical observations ([12]; weanling mice): not with gemcitabine alone
- Effect on tumor growth [21]: insignificant effects on tumor growth
